In patent US8987314B2, “Amide, urea or sulfone amide linked benzothiazole inhibitors of endothelial lipase” (Bristol-Myers Squibb Company, priority 2012, dated 2015) one finds IC50 data, which are given here for eleven compounds.

SMILES strings stand for the structures. pIC50: −log10 of the molar value.

The target in one experiment is Endothelial lipase (EL) (Homo sapiens (Human), UniProt Q9Y5X9). Description: EL assay: endothelial lipase activity with fluorescent substrate A10070 in DMPG vesicles. It is filed as biochemical. Put shortly: (§1)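 EL from conditioned medium of HT-1080 cells engineered to overexpress endogenous EL; HL partially purified from conditioned medium of HL-overexpressing COS cells. Enzyme preincubated with compound 30 min at 37° C in 50 mM HEPES pH 8.0, 50 mM NaCl, 1 mM CaCl2; DMPG vesicles carrying FRET substrate (0.11 mole fraction) then added.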
Chain of Endothelial lipase (EL) (Q9Y5X9 21-500): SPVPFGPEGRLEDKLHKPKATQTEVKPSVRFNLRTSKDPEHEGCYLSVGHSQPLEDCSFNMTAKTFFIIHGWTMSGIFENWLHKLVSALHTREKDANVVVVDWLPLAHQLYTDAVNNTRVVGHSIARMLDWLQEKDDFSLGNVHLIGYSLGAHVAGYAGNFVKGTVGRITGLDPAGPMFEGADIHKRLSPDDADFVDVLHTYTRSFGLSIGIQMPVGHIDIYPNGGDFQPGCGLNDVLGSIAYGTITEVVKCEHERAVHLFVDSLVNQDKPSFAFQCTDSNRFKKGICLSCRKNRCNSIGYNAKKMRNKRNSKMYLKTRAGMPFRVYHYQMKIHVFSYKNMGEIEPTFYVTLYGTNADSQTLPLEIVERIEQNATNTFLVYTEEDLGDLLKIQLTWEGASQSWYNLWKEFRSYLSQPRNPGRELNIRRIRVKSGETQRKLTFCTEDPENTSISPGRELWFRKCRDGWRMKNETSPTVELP

A further experiment deals with hepatic lipase (HL) (Homo sapiens (Human), UniProt P11150). Description: HL assay: hepatic lipase activity with fluorescent substrate A10070 in DMPG vesicles. The format is biochemical. Put shortly: as §1
Chain of hepatic lipase (HL) (P11150 23-499, species assumed): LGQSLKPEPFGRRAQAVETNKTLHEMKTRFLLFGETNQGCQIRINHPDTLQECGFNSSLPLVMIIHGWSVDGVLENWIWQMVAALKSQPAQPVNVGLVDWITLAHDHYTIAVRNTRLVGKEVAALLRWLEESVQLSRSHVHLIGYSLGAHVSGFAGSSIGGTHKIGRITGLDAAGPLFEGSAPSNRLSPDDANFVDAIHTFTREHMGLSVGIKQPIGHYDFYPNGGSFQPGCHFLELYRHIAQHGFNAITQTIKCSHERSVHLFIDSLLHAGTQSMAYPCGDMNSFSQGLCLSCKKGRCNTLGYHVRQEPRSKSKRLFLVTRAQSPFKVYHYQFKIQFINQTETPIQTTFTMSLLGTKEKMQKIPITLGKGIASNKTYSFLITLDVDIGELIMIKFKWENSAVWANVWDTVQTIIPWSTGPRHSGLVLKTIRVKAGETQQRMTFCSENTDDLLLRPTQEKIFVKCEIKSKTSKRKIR

For orientation: pIC50 means −log10 of the IC50, conventionally taken in molar units. High values mean a low IC50, low ones a high IC50. `NS(=O)(=O)CCNC(=O)C(c1nc2ccc(-c3ccc(C(=O)N4CCOCC4)cc3)cc2s1)S(=O)(=O)CC1CC1` (stereo not shown) [Example B283, 2-cyclopropylmethane-sulfonyl-2-{6-[4-(morpholine-4-carbonyl)phenyl]-1,3-benzothiazol-2-yl}-N-(2-sulfamoylethyl)acetamide]: the pIC50 at Endothelial lipase (EL) is 7.27; against hepatic lipase (HL) it was 6.44.
In the same order, the values of `NCCS(=O)(=O)C(C(=O)NCCS(N)(=O)=O)c1nc2ccc(-c3ccccc3)cc2s1` (stereo not shown) [Example B161, 2-((2-aminoethyl)sulfonyl)-2-(6-phenyl-1,3-benzothiazol-2-yl)-N-(2-sulfamoylethyl)acetamide] are over 8.00 and 7.66.
In the same order, the values of `COC1CN(C(=O)c2ccc(-c3ccc4nc(C(C(=O)NCCS(N)(=O)=O)S(C)(=O)=O)sc4c3)cc2)C1` (stereo not shown) [Example B175, 2-(6-(4-((3-methoxy-1-azetidinyl)carbonyl)phen-yl)-1,3-benzothiazol-2-yl)-2-(methylsulfonyl)-N-(2-sulfamoylethyl)a-cetamide] are over 8.00 and 6.93.
With `CC(C)(O)Cn1ccc(-c2ccc3sc(C(C(=O)NCCS(N)(=O)=O)S(C)(=O)=O)nc3c2)cc1=O` (stereo not shown) [Example B389, 2-{5-[1-(2-hydroxy-2-methylpropyl)-2-oxo-1,2-dihydropyridin-4-yl]-1,3-benzothiazol-2-yl}-2-methanesulfonyl-N-(2-sulfamoylethyl)acetamide], the pIC50 against Endothelial lipase (EL) was 8.70; against hepatic lipase (HL) it was 5.20.
In the case of `CS(=O)(=O)C(C(=O)NCc1ccccc1S(N)(=O)=O)c1nc2ccc(-c3ccc(N4CCCCC4)cc3)cc2s1` (stereo not shown) [Example B275, 2-methanesulfonyl-2-{6-[4-(piperidin-1-yl)phenyl]-1,3-benzothiazol-2-yl}-N-[(2-sulfamoylphenyl)meth-yl]acetamide], the pIC50 on Endothelial lipase (EL) was 6.76; at hepatic lipase (HL), 6.66.
For `COc1cccc(-c2ccc3nc(C(C(=O)NCCS(N)(=O)=O)S(C)(=O)=O)sc3c2)c1` (stereo not shown) [Example B79, 2-(6-(3-methoxyphenyl)-1,3-benzothiazol-2-yl)-2-(methylsulfonyl)-N-(2-sulfamoylethyl)acetamide] the same measures were over 8.00 and over 8.00.
For `CC(C)S(=O)(=O)C(C(=O)NCCS(N)(=O)=O)c1nc2cc(C(F)(F)F)c(-c3ccc(C(=O)N4CCOCC4)cc3)cc2s1` (stereo not shown) [Example B268, 2-{6-[4-(morpholine-4-carbonyl)phenyl]-5-(trifluoromethyl)-1,3-benzothiazol-2-yl}-2-(propane-2-sulfonyl)-N-(2-sulfamoylethyl)acetamide], the pIC50 on Endothelial lipase (EL) is 8.04; against hepatic lipase (HL), 6.39.
On to `NS(=O)(=O)CCNC(=O)C(c1nc2ccc(-c3ccc(C(=O)N4CCOCC4)cc3)cc2s1)S(=O)(=O)CCNC(=O)OCc1ccccc1` (stereo not shown) [Example B158, benzyl (2-((1-(6-(4-(4-morpholinylcarbonyl)phen-yl)-1,3-benzothiazol-2-yl)-2-oxo-2-((2-sulfamoyl-ethyl)amino)ethyl)sul-fonyl)ethyl)carbamate], for which the values for the pIC50 on Endothelial lipase (EL) and at hepatic lipase (HL) were over 8.00 and 7.51, respectively.
In the same order, the values of `CC(=O)Nc1ccc(-c2ccc3nc(C(C(=O)NCCS(N)(=O)=O)S(=O)(=O)Cc4ccccc4)sc3c2)cc1` (stereo not shown) [Example B44, 2-(6-(4-acetamidophenyl)-1,3-benzothiazol-2-yl)-2-(benzylsulfonyl)-N-(2-sulfamoylethyl)acetamide] are over 8.00 and 6.83.
For `CS(=O)(=O)C(C(=O)NCCS(N)(=O)=O)c1nc2ccc(-c3ccc(C(N)=O)cc3)cc2s1` (stereo not shown) [Example B214, 4-(2-{methanesulfonyl[(2-sul-famoylethyl)carbamoyl]meth-yl}-1,3-benzothiazol-6-yl)benzamide], the pIC50 on Endothelial lipase (EL) was 8.80; against hepatic lipase (HL) it was 6.80.
For `Cc1cc2nc(C(C(=O)NCCS(N)(=O)=O)S(=O)(=O)Cc3ccccc3)sc2cc1-c1ccc(C(=O)N2CCCCC2)cc1` (stereo not shown) [Example B348, 2-{5-methyl-6-[4-(piperidine-1-carbonyl)phen-yl]-1,3-benzothiazol-2-yl}-2-phenylmethane-sulfonyl-N-(2-sulfamoylethyl)acetamide] the same measures were 9.00 and 7.43.
